The text below walks through data of patent US12492199B2, “Pyridopyrimidines as histamine H4-receptor inhibitors” (FAES FARMA, S.A., priority 2018, dated 2025).

Each structure is given as a SMILES string.

In the first assay the target is human H4 receptor (Homo sapiens (Human), UniProt Q9H3N8). As to the kind of experiment: H4 Binding assay ([3H]histamine competition, membranes from CHO-K1 cells transfected with human H4 receptor).
human H4 receptor, sequence (Q9H3N8 whole entry): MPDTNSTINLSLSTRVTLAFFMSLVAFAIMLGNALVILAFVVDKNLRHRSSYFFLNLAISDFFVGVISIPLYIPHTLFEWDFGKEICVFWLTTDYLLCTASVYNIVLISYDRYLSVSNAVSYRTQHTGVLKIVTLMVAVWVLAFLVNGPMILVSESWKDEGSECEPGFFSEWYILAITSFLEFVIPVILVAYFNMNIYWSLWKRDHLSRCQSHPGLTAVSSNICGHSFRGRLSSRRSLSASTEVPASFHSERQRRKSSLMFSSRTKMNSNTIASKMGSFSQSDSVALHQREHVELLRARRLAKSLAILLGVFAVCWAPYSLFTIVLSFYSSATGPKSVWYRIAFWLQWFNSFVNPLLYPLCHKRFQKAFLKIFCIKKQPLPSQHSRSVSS
Settings: not given
Here is the method: Affinity for histamine H4-receptor was determined by H4 Binding assay:
• Membranes from CHO-K1 cells transfected with human H4 receptor and microplates of 96-well format were used. • For competition studies cell membranes were homogenated in Tris-HCl 50 mM, EDTA 5 mM, pH 7.4 and added to the microplate at the concentration of approximately 15 μg/well. […] Non specific binding was defined using 10 μM unlabeled histamine and the total incubation volume was 275 μl per well. • Incubations were performed under gentle agitation at 25° C. for 60 min and concluding with a rapid vacuum filtration using pre-soaked filters (0.5% polyethylenimine). After ten rapid washes with cold wash buffer (50 mM Tris-HCl buffer) the filter plates were dried at room temperature for 30 min. • Finally, scintillation liquid (Microscint 20) was added to the whole microplate in order to measure the radioactivity reattained on the filters using a specific scintillation counter (Top Count—NXT). […] H1 Binding Assay Materials
What is called Ki is the dissociation constant of the complex between target and ligand, obtained from inhibition or displacement. Turning to `O=S(=O)(CCNc1nc(C2=CCNCC2)nc2cnc(Cl)cc12)Nc1ccccc1` [Example 41, 2-((6-chloro-2-(1,2,3,6-tetrahydropyridin-4-yl)pyrido[3,4-d]pyrimidin-4-yl)amino)-N-phenylethane-1-sulfonamide], the Ki is less than 100 nM.

The assay is the same for the next values; noted with them: affinity for human histamine H4 receptor, class symbols; read-out: ACTIVITY CLASS hH4R (Ki).
In the case of `CNC(=O)CCNc1nc(N2CCN(C)CC2)nc2cnc(Cl)cc12` [Example 98, 3-((6-chloro-2-(4-methylpiperazin-1-yl)pyrido[3,4-d]pyrimidin-4-yl)amino)-N-methylpropanamide], the Ki was less than 1000 nM.

Regarding `CSc1cccc(NS(=O)(=O)CCNc2nc(N3CCN(C)CC3)nc3cnc(Cl)cc23)c1` [Example 81, 2-((6-chloro-2-(4-methylpiperazin-1-yl)pyrido[3,4-d]pyrimidin-4-yl)amino)-N-(3-(methylthio)phenyl)ethane-1-sulfonamide], the Ki is less than 100 nM.

With `CN1CCN(c2nc(NCCS(=O)(=O)Nc3ccc(Cl)cc3)c3cc(Cl)ncc3n2)CC1` [Example 82, 2-((6-chloro-2-(4-methylpiperazin-1-yl)pyrido[3,4-d]pyrimidin-4-yl)amino)-N-(4-chlorophenyl)ethane-1-sulfonamide], the Ki is less than 100 nM.

As for `CN1CCN(c2nc(NCCS(=O)(=O)Nc3ccccc3N)c3cc(Cl)ncc3n2)CC1` [Example 75, N-(2-aminophenyl)-2-((6-chloro-2-(4-methylpiperazin-1-yl)pyrido[3,4-d]pyrimidin-4-yl)amino)ethane-1-sulfonamide], the Ki was less than 1000 nM.

For `CN(c1ccccc1)S(=O)(=O)CCNc1nc(N2CCNCC2)nc2cnc(Cl)cc12` [Example 27, 2-((6-chloro-2-(piperazin-1-yl)pyrido[3,4-d]pyrimidin-4-yl)amino)-N-methyl-N-phenylethane-1-sulfonamide], the Ki was less than 100 nM.

`CC(C)c1cc2c(NCc3cccs3)nc(N3CCN(C)CC3)nc2cn1` [Example 52, 6-isopropyl-2-(4-methylpiperazin-1-yl)-N-(thiophen-2-ylmethyl)pyrido[3,4-d]pyrimidin-4-amine]: the Ki was less than 100 nM.

Consider `CN1CCN(c2nc(NCCS(=O)(=O)Nc3cccc(Cl)c3)c3cc(Cl)ncc3n2)CC1` [Example 76, 2-((6-chloro-2-(4-methylpiperazin-1-yl)pyrido[3,4-d]pyrimidin-4-yl)amino)-N-(3-chlorophenyl)ethane-1-sulfonamide], for which the Ki was less than 100 nM.

In the case of `CN1CCN(c2nc(NCCS(=O)(=O)N3CCOCC3)c3cc(Cl)ncc3n2)CC1` [Example 18, 6-chloro-2-(4-methylpiperazin-1-yl)-N-(2-(morpholinosulfonyl)ethyl)pyrido[3,4-d]pyrimidin-4-amine], the Ki is less than 100 nM.

`CN1CCN(c2nc(NCCS(=O)(=O)NCc3ccccn3)c3cc(Cl)ncc3n2)CC1` [Example 88, 2-((6-chloro-2-(4-methylpiperazin-1-yl)pyrido[3,4-d]pyrimidin-4-yl)amino)-N-(pyridin-2-ylmethyl)ethane-1-sulfonamide]: the Ki was less than 100 nM.

For the compound `CN1CCN(c2nc(NCCS(=O)(=O)NCc3ccccc3)c3cc(Cl)ncc3n2)CC1` [Example 15, N-benzyl-2-((6-chloro-2-(4-methylpiperazin-1-yl)pyrido[3,4-d]pyrimidin-4-yl)amino)ethane-1-sulfonamide], the Ki is less than 100 nM.

For `CNS(=O)(=O)CCNc1nc(N2CCN(C)CC2)nc2cnc(Cl)cc12` [Example 14, 2-((6-chloro-2-(4-methylpiperazin-1-yl)pyrido[34-d]pyrimidin-4-yl)amino)-N-methylethane-1-sulfonamide], the Ki is less than 100 nM.

As to `Cc1cc2c(NCc3cccs3)nc(N3CCN(C)CC3)nc2cn1` [Example 46, 6-methyl-2-(4-methylpiperazin-1-yl)-N-(thiophen-2-ylmethyl)pyrido[3,4-d]pyrimidin-4-amine], the Ki was less than 1000 nM.

Regarding `CN1CCN(c2nc(NCCS(=O)(=O)Nc3cccc(C(F)(F)F)c3)c3cc(Cl)ncc3n2)CC1` [Example 78, 2-((6-chloro-2-(4-methylpiperazin-1-yl)pyrido[3,4-d]pyrimidin-4-yl)amino)-N-(3-(trifluoromethyl)phenyl)ethane-1-sulfonamide], the Ki is less than 100 nM.

On to `CCCCNc1nc(N2CCN(C)CC2)nc2cnc(Cl)cc12` [Example 22, N-butyl-6-chloro-2-(4-methylpiperazin-1-yl)pyrido[3,4-d]pyrimidin-4-amine], for which the Ki was less than 1000 nM.

In the case of `CN1CCN(c2nc(NCCS(=O)(=O)Nc3ccc(C(F)(F)F)cc3)c3cc(Cl)ncc3n2)CC1` [Example 83, 2-((6-chloro-2-(4-methylpiperazin-1-yl)pyrido[3,4-d]pyrimidin-4-yl)amino)-N-(4-(trifluoromethyl)phenyl)ethane-1-sulfonamide], the Ki was less than 1000 nM.

As for `CN1CCN(c2nc(NCCS(=O)(=O)Nc3cccc(OC(F)(F)F)c3)c3cc(Cl)ncc3n2)CC1` [Example 77, 2-((6-chloro-2-(4-methylpiperazin-1-yl)pyrido[3,4-d]pyrimidin-4-yl)amino)-N-(3-(trifluoromethoxy)phenyl)ethane-1-sulfonamide], the inhibition constant Ki is less than 1000 nM.

On to `CN1CCN(c2nc(NCCc3nccs3)c3cc(Cl)ncc3n2)CC1` [Example 70, 6-chloro-2-(4-methylpiperazin-1-yl)-N-(2-(thiazol-2-yl)ethyl)pyrido[3,4-d]pyrimidin-4-amine], for which the Ki is less than 1000 nM.

`O=S(=O)(CCNc1nc(N2CCN3CCCC3C2)nc2cnc(Cl)cc12)Nc1ccccc1` (stereo not shown) [Example 37, 2-((6-chloro-2-(hexahydropyrrolo[1,2-a]pyrazin-2(1H)-yl)pyrido[3,4-d]pyrimidin-4-yl)amino)-N-phenylethane-1-sulfonamide]: the Ki is less than 100 nM.

On to `CCCc1cc2c(NCCc3cccs3)nc(N3CCN(C)CC3)nc2cn1` [Example 50, 2-(4-methylpiperazin-1-yl)-6-propyl-N-(2-(thiophen-2-yl)ethyl)pyrido[3,4-d]pyrimidin-4-amine], for which the Ki is less than 1000 nM.

Consider `CC(C)c1cc2c(NCCc3cccs3)nc(N3CCN(C)CC3)nc2cn1` [Example 53, 6-isopropyl-2-(4-methylpiperazin-1-yl)-N-(2-(thiophen-2-yl)ethyl)pyrido[3,4-d]pyrimidin-4-amine], for which the Ki is less than 1000 nM.

As to `CN1CCN(c2nc(NCCS(=O)(=O)Nc3cccc(Cl)n3)c3cc(Cl)ncc3n2)CC1` [Example 87, 2-((6-chloro-2-(4-methylpiperazin-1-yl)pyrido[3,4-d]pyrimidin-4-yl)amino)-N-(6-chloropyridin-2-yl)ethane-1-sulfonamide], the Ki is less than 1000 nM.

Take `CC(C)c1cc2c(NCc3ccco3)nc(N3CCN(C)CC3)nc2cn1` [Example 51, N-(furan-2-ylmethyl)-6-isopropyl-2-(4-methylpiperazin-1-yl)pyrido[3,4-d]pyrimidin-4-amine]: the Ki is less than 1000 nM.

Take `CN1CCN(c2nc(NCc3nccs3)c3cc(Cl)ncc3n2)CC1` [Example 7, 6-chloro-2-(4-methylpiperazin-1-yl)-N-(thiazol-2-ylmethyl)pyrido[3,4-d]pyrimidin-4-amine]: the Ki is less than 1000 nM.

Regarding `O=S(=O)(CCNc1nc(N2CCN3CCCC3C2)nc2cnc(Cl)cc12)N1CCOCC1` (stereo not shown) [Example 38, 6-chloro-2-(hexahydropyrrolo[1,2-a]pyrazin-2(1H)-yl)-N-(2-(morpholinosulfonyl)ethyl)pyrido[3,4-d]pyrimidin-4-amine], the Ki is less than 100 nM.
